Where “and” joins values, the source holds several entries; their conditions need not be identical. Equal values may be shown once.

The test has as its target HIV-1 wild-type protease (Human immunodeficiency virus type 1 group M subtype B, UniProt P04585). As to the kind of experiment: Fluorometric HIV-1 protease assay (SensoLyte 520 HIV Protease Assay Kit). The settings on record: for enzyme inhibition (relative activity): at 1 μM, 100 nM and 10 nM. In kind it is biochemical. The procedure: The inhibitory effects of the described compounds against HIV-1 wild-type protease were assessed utilizing the fluorometric HIV-1 protease assay kit (SensoLyte 520 HIV Protease Assay Kit AS-71147, AnaSpec Inc., USA), following the manufacturer’s recommended protocol. […] Additionally, 0.01% (v/v) DMSO was employed as the negative control. […] The tested compounds 9a–g were dissolved in 100% DMSO and further diluted with the assay buffer provided in the kit to varying concentrations. The fluorescence was measured in kinetic mode at 490 nm (excitation) and 520 nm (emission) for 90 min at 37 °C using the Varioskan LUX multimode microplate reader (Thermo Fisher Scientific Inc. USA). The raw data obtained were subsequently normalized relative to the controls, with 0.01% DMSO set as 0% inhibitory activity. The IC50 values were calculated by fitting the data to a four-parameter log(inhibitor) vs response equation using GraphPad Prism version 9.5.0 (GraphPad Software, San Diego, California, USA).

On to `NC(=O)CNC(=O)C(Cc1ccccc1)CP(=O)(O)CC(Cc1ccccc1)C(=O)NCC(N)=O` (stereo not shown) [Compound 9a, Bis(3-((2-amino-2-oxoethyl)amino)-2-benzyl-3-oxopropyl)phosphinic Acid], for which, under “result in words”, the “enzyme inhibition (relative activity)” value was “did not exhibit any significant inhibitory effect”.

Turning to `C[C@H](NC(=O)C(Cc1ccccc1)CP(=O)(O)CC(Cc1ccccc1)C(=O)N[C@@H](C)C(N)=O)C(N)=O` (stereo partly drawn) [Compound 9b, Bis(3-(((S)-1-amino-1-oxopropan-2-yl)amino)-2-benzyl-3-oxopropyl)phosphinic Acid], the “enzyme inhibition (relative activity)” value (result in words) is given as “only weak inhibition”.

For the compound `CC(C)[C@H](NC(=O)C(Cc1ccccc1)CP(=O)(O)CC(Cc1ccccc1)C(=O)N[C@H](C(N)=O)C(C)C)C(N)=O` (stereo partly drawn) [Compound 9c, Bis(3-(((S)-1-amino-3-methyl-1-oxobutan-2-yl)amino)-2-benzyl-3-oxopropyl)phosphinic Acid], under “IC50, wild-type HIV-1 protease, four-parameter log(inhibitor) vs response fit”, the concentration for half-maximal inhibition (IC50) was 33 nM and 33.1 nM. For the same compound, the inhibitory effect result (at 1 μM and 100 nM, result in words) was “pronounced inhibitory effect comparable to that of Darunavir”.

Consider `CC(C)C[C@H](NC(=O)C(Cc1ccccc1)CP(=O)(O)CC(Cc1ccccc1)C(=O)N[C@@H](CC(C)C)C(N)=O)C(N)=O` (stereo partly drawn) [Compound 9d, Bis(3-(((S)-1-amino-4-methyl-1-oxopentan-2-yl)amino)-2-benzyl-3-oxopropyl)phosphinic Acid], for which the “enzyme inhibition (relative activity)” value (result in words) is listed as “moderate level of enzyme inhibition”.

With `NC(=O)[C@H](Cc1ccccc1)NC(=O)C(Cc1ccccc1)CP(=O)(O)CC(Cc1ccccc1)C(=O)N[C@@H](Cc1ccccc1)C(N)=O` (stereo partly drawn) [Compound 9e, Bis(3-(((S)-1-amino-1-oxo-3-phenylpropan-2-yl)amino)-2-benzyl-3-oxopropyl)phosphinic Acid], the “enzyme inhibition (relative activity)” value (result in words) is “only weak inhibition”.

Take `NC(=O)[C@@H]1CCCN1C(=O)C(Cc1ccccc1)CP(=O)(O)CC(Cc1ccccc1)C(=O)N1CCC[C@H]1C(N)=O` (stereo partly drawn) [Compound 9f, Bis(2-benzyl-3-((S)-2-carbamoylpyrrolidin-1-yl)-3-oxopropyl)phosphinic Acid]: the “enzyme inhibition (relative activity)” value (result in words) is listed as “did not exhibit any significant inhibitory effect”.

A word on the IC50: it is the concentration at which inhibition is half-maximal.
